# Source: patent US11352339B2 (MISSION THERAPEUTICS LIMITED, priority 2016, dated 2022)
# Target: USP30 (Homo sapiens (Human), UniProt Q70CQ3)
# Experiment: USP30 Biochemical IC50 Assay
# Conditions: fluorescence polarisation, TAMRA labelled peptide linked to ubiquitin; 30 min pre-incubation, read after 2 h; read-out: IC50 range
# Procedure: Reactions were performed in duplicate in black 384 well plates (small volume, Greiner 784076) in a final reaction volume of 21 μl. Either 1 μl of 50% DMSO or diluted compound was added to the plate. […] Enzyme and compound were incubated for 30 min at room temp. Reactions were initiated by the addition of 50 nM of TAMRA labelled peptide linked to ubiquitin via an iso-peptide bond as fluorescence polarisation substrate. Reactions were read immediately after addition of substrate and following a 2 h incubation at room temperature. Readings were performed on a Pherastar Plus (BMG Labtech). λ Excitation 540 nm; λ Emission 590 nm.
# Sequence of USP30 (Q70CQ3 57-517): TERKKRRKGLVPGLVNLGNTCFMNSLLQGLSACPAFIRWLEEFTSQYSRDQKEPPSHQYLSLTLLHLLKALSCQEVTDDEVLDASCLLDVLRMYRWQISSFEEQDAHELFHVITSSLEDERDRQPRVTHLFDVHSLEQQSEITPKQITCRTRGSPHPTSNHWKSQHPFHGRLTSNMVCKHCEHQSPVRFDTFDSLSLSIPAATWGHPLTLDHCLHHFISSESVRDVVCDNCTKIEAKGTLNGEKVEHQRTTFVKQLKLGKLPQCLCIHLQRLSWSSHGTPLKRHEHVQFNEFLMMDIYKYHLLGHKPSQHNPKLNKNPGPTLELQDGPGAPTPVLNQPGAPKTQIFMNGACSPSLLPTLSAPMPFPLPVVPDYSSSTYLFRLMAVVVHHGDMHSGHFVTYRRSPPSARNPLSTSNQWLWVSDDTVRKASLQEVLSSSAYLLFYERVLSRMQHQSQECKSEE
row,Compound,IC50 [nM]
1,"C[C@@H]1CN(C#N)C[C@H]1c1cc(-c2cccc(-c3ccccc3)c2)n[nH]1 (relative stereo) [Example 19, Trans-3-(3-([1,1′-biphenyl]-3-yl)-1H-pyrazol-5-yl)-4-methylpyrrolidine-1-carbonitrile]",100 to 1000
2,"CC[C@@H]1CN(C#N)C[C@H]1c1cc(-c2cccc(-c3ccccc3)c2)n[nH]1 (relative stereo) [Example 43, trans-3-(3-([1,1′-biphenyl]-3-yl)-1H-pyrazol-5-yl)-4-ethylpyrrolidine-1-carbonitrile]",100 to 1000
3,"N#CN1C[C@@H](c2cc(-c3cccc(-c4ccccc4)c3)n[nH]2)[C@H](C2CC2)C1 (relative stereo) [Example 46, Trans-3-(3-([1,1′-biphenyl]-3-yl)-1H-pyrazol-5-yl)-4-cyclopropylpyrrolidine-1-carbonitrile]",100 to 1000
4,"C[C@@H]1CN(C#N)C[C@H]1c1cc(-c2ccncc2)n[nH]1 (relative stereo) [Example 48, Trans-3-methyl-4-(3-(pyridin-4-yl)-1H-pyrazol-5-yl)pyrrolidine-1-carbonitrile]",1000 to 10000
5,"C[C@@H]1CN(C#N)C[C@H]1c1cc(-c2ccccc2)n[nH]1 (relative stereo) [Example 49, Trans-3-methyl-4-(3-phenyl-1H-pyrazol-5-yl)pyrrolidine-1-carbonitrile]",1000 to 10000
6,"C[C@@H]1CN(C#N)C[C@H]1c1nc(-c2ccccc2)n[nH]1 (relative stereo) [Example 113, Trans 3-methyl-4-(3-phenyl-1H-1,2,4-triazol-5-yl)pyrrolidine-1-carbonitrile]",1000 to 10000
7,"C[C@@H]1CN(C#N)C[C@H]1c1n[nH]c(-c2cccc(-c3ccccc3)c2)n1 (relative stereo) [Example 114, Trans-3-(3-([1,1′-biphenyl]-3-yl)-1H-1,2,4-triazol-5-yl)-4-methylpyrrolidine-1-carbonitrile]",< 100
8,"N#CN1CCC(c2[nH]nc(-c3cccc(-c4ccccc4)c3)c2F)C1 (single isomer, unassigned) [Example 16, 3-(3-([1,1′-Biphenyl]-3-yl)-4-fluoro-1H-pyrazol-5-yl)pyrrolidine-1-carbonitrile]",100 to 1000
9,"N#CN1CCC(c2[nH]nc(-c3cccc(-c4ccccc4)c3)c2F)C1 (single isomer, unassigned) [Example 17, 3-(3-([1,1′-Biphenyl]-3-yl)-4-fluoro-1H-pyrazol-5-yl)pyrrolidine-1-carbonitrile]",< 100
10,"N#CN1CCC(c2cc(-c3cccc(-c4ccccc4)n3)[nH]n2)C1 (single isomer, unassigned) [Example 41, 3-(5-(6-Phenylpyridin-2-yl)-1H-pyrazol-3-yl)pyrrolidine-1-carbonitrile]",100 to 1000
11,"N#CN1CCC(c2cc(-c3cccc(-c4ccccc4)n3)[nH]n2)C1 (single isomer, unassigned) [Example 42, 3-(5-(6-Phenylpyridin-2-yl)-1H-pyrazol-3-yl)pyrrolidine-1-carbonitrile]",100 to 1000
12,"CC[C@@H]1CN(C#N)C[C@H]1c1cc(-c2cccc(-c3ccccc3)c2)n[nH]1 (single isomer, unassigned) [Example 44, Trans-3-(3-([1,1′-biphenyl]-3-yl)-1H-pyrazol-5-yl)-4-ethylpyrrolidine-1-carbonitrile]",1000 to 10000
13,"CC[C@@H]1CN(C#N)C[C@H]1c1cc(-c2cccc(-c3ccccc3)c2)n[nH]1 (single isomer, unassigned) [Example 45, Trans-3-(3-([1,1′-biphenyl]-3-yl)-1H-pyrazol-5-yl)-4-ethylpyrrolidine-1-carbonitrile]",100 to 1000
14,"N#CN1CCC(c2nc3cc(-c4ccncc4)cnc3[nH]2)C1 (single isomer, unassigned) [Example 81, 3-(6-(Pyridin-4-yl)-3H-imidazo[4,5-b]pyridin-2-yl)pyrrolidine-1-carbonitrile]",100 to 1000
15,"N#CN1CCC(c2nc3cc(-c4ccncc4)cnc3[nH]2)C1 (single isomer, unassigned) [Example 82, 3-(6-(Pyridin-4-yl)-3H-imidazo[4,5-b]pyridin-2-yl)pyrrolidine-1-carbonitrile]",1000 to 10000
16,"N#Cc1ccc(-c2cnc3[nH]c(C4CCN(C#N)C4)nc3c2)cc1 (single isomer, unassigned) [Example 90, 3-(6-(4-Cyanophenyl)-3H-imidazo[4,5-b]pyridin-2-yl)pyrrolidine-1-carbonitrile]",100 to 1000
17,"N#Cc1ccc(-c2cnc3[nH]c(C4CCN(C#N)C4)nc3c2)cc1 (single isomer, unassigned) [Example 91, 3-(6-(4-Cyanophenyl)-3H-imidazo[4,5-b]pyridin-2-yl)pyrrolidine-1-carbonitrile]",100 to 1000
18,"CNC(=O)c1cccc(-c2cnc3[nH]c(C4CCN(C#N)C4)nc3c2)c1 (single isomer, unassigned) [Example 92, 3-(2-(1-Cyanopyrrolidin-3-yl)-3H-imidazo[4,5-b]pyridin-6-yl)-N-methylbenzamide]",1000 to 10000
19,"CNC(=O)c1cccc(-c2cnc3[nH]c(C4CCN(C#N)C4)nc3c2)c1 (single isomer, unassigned) [Example 93, 3-(2-(1-Cyanopyrrolidin-3-yl)-3H-imidazo[4,5-b]pyridin-6-yl)-N-methylbenzamide]",100 to 1000

row,Compound,IC50 [nM]
1,"C[C@H]1CN(C#N)C[C@@H]1c1nc2cc(-c3ccccc3)cnc2[nH]1 (single isomer, unassigned) [Example 102, Trans-3-methyl-4-(6-phenyl-3H-imidazo[4,5-b]pyridin-2-yl)pyrrolidine-1-carbonitrile]",100 to 1000
2,"C[C@H]1CN(C#N)C[C@@H]1c1nc2cc(-c3ccccc3)cnc2[nH]1 (single isomer, unassigned) [Example 103, Trans-3-methyl-4-(6-phenyl-3H-imidazo[4,5-b]pyridin-2-yl)pyrrolidine-1-carbonitrile]",100 to 1000
3,"C[C@H]1CN(C#N)C[C@@H]1c1nc2cc(-c3ccccc3)ccc2[nH]1 (single isomer, unassigned) [Example 104, Trans-3-methyl-4-(5-phenyl-1H-benzo[d]imidazol-2-yl)pyrrolidine-1-carbonitrile]",100 to 1000
4,"C[C@@H]1CN(C#N)C[C@H]1c1n[nH]c(-c2cccc(-c3ccccc3)c2)n1 (single isomer, unassigned) [Example 116, Trans-3-(3-([1,1′-biphenyl]-3-yl)-1H-1,2,4-triazol-5-yl)-4-methylpyrrolidine-1-carbonitrile]",100 to 1000
5,"N#CN1CCC(c2cc(-c3cccc(-c4ccccc4)c3)no2)C1 (single isomer, unassigned) [Example 118, 3-(3-([1,1′-Biphenyl]-3-yl)isoxazol-5-yl)pyrrolidine-1-carbonitrile]",< 100
6,"N#CN1CCC(c2cc(-c3cccc(-c4ccccc4)c3)no2)C1 (single isomer, unassigned) [Example 119, 3-(3-([1,1′-Biphenyl]-3-yl)isoxazol-5-yl)pyrrolidine-1-carbonitrile]",< 100
7,"N#Cc1ccc2ccc(-c3nc([C@@H]4CCCN4C#N)no3)cc2n1 (stereo in doubt) [Example 179, 7-(3-(1-Cyanopyrrolidin-2-yl)-1,2,4-oxadiazol-5-yl)quinoline-2-carbonitrile]",1000 to 10000
8,"N#Cc1cccc(-c2cc(C3CCN(C#N)C3)[nH]n2)c1 (centres unmarked) [Example 1, 3-(3-(3-Cyanophenyl)-1H-pyrazol-5-yl)pyrrolidine-1-carbonitrile]",100 to 1000
9,"N#Cc1ccc(-c2cc(C3CCN(C#N)C3)[nH]n2)cc1 (centres unmarked) [Example 2, 3-(3-(4-Cyanophenyl)-1H-pyrazol-5-yl)pyrrolidine-1-carbonitrile]",1000 to 10000
10,"CNC(=O)c1ccc(-c2cc(C3CCN(C#N)C3)[nH]n2)cn1 (centres unmarked) [Example 3, 5-(5-(1-Cyanopyrrolidin-3-yl)-1H-pyrazol-3-yl)-N-methylpicolinamide]",1000 to 10000
11,"N#CN1CCC(c2cc(-c3ccc(C(N)=O)cc3)n[nH]2)C1 (centres unmarked) [Example 4, 4-(5-(1-Cyanopyrrolidin-3-yl)-1H-pyrazol-3-yl)benzamide]",1000 to 10000
12,"CN1CCN(c2ccc(-c3cc(C4CCN(C#N)C4)[nH]n3)cc2)CC1 (centres unmarked) [Example 5, 3-(3-(4-(4-Methylpiperazin-1-yl)phenyl)-1H-pyrazol-5-yl)pyrrolidine-1-carbonitrile]",100 to 1000
13,"N#CN1CCC(c2cc(-c3cccc(C(N)=O)c3)n[nH]2)C1 (centres unmarked) [Example 6, 3-(5-(1-Cyanopyrrolidin-3-yl)-1H-pyrazol-3-yl)benzamide]",1000 to 10000
14,"CC(=O)Nc1cccc(-c2cc(C3CCN(C#N)C3)[nH]n2)c1 (centres unmarked) [Example 7, N-(3-(5-(1-Cyanopyrrolidin-3-yl)-1H-pyrazol-3-yl)phenyl)acetamide]",1000 to 10000
15,"CN(C)C(=O)c1cccc(-c2cc(C3CCN(C#N)C3)[nH]n2)c1 (centres unmarked) [Example 8, 3-(5-(1-Cyanopyrrolidin-3-yl)-1H-pyrazol-3-yl)-N,N-dimethylbenzamide]",100 to 1000
16,"CC(=O)Nc1ccc(-c2cc(C3CCN(C#N)C3)[nH]n2)cc1 (centres unmarked) [Example 9, N-(4-(5-(1-Cyanopyrrolidin-3-yl)-1H-pyrazol-3-yl)phenyl)acetamide]",1000 to 10000
17,"Cc1cc(-c2cc(C3CCN(C#N)C3)[nH]n2)ccn1 (centres unmarked) [Example 11, 3-(3-(2-Methylpyridin-4-yl)-1H-pyrazol-5-yl)pyrrolidine-1-carbonitrile]",1000 to 10000
18,"N#CN1CCC(c2cc(-c3cccc(N4CCCCC4)c3)n[nH]2)C1 (centres unmarked) [Example 12, 3-(3-(3-(Piperidin-1-yl)phenyl)-1H-pyrazol-5-yl)pyrrolidine-1-carbonitrile]",100 to 1000
19,"N#CN1CCC(c2cc(-c3cccc(-c4ccccc4)c3)n[nH]2)C1 (centres unmarked) [Example 14, 3-(3-([1,1′-Biphenyl]-3-yl)-1H-pyrazol-5-yl)pyrrolidine-1-carbonitrile]",100 to 1000
